Data on seven molecules can be found in ChEMBL document CHEMBL1201862, “PubChem BioAssay data set” (2004).

Test [1] in a line: reduction of Shn3 3'UTR firefly luciferase signal, dose response, Schnurri-3 inhibitor project, cell-based, Clone20 osteoblasts, cherry-pick, set 2 (AID 720490).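 Note: actives lower the luminescence signal as inhibitors.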 It counts as functional.
Test [2] is described as follows: Shn3 3'UTR reporter inhibitors, dose response, cell-based, Clone20 osteoblasts, firefly luciferase, cherry-picked (AID 624132).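 Note: firefly luciferase luminescence from reporter carrying the Shn3 3'UTR in osteoblasts.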 The class given is functional.
The target of test [3] is T1, DNA repair and recombination protein RAD54-like (Homo sapiens, UniProt Q92698).
T1 sequence (Q92698 whole entry): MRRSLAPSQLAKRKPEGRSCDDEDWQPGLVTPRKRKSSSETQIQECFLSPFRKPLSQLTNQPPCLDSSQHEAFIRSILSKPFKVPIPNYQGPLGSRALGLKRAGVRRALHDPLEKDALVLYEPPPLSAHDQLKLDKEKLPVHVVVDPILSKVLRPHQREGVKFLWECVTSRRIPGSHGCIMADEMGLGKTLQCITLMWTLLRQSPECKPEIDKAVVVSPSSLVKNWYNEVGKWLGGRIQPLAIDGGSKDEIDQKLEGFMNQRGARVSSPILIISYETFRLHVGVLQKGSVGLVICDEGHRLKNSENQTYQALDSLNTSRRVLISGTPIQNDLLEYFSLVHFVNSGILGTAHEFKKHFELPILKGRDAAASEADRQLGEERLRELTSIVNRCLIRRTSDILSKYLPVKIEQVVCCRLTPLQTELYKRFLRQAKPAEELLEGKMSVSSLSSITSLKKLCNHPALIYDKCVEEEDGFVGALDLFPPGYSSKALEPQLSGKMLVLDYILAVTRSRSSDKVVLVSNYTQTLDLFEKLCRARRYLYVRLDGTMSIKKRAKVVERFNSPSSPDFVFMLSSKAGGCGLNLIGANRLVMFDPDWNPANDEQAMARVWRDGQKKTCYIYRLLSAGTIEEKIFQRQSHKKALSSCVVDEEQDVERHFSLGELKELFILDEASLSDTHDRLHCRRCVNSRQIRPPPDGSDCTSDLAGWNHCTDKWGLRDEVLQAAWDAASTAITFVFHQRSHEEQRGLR
Briefly: inhibitors of human RAD54 branch migration, confirmation, biochemical, fluorescence, cherry-picked samples, dose series (AID 651657). It counts as functional.

Test [4] deals with SWI/SNF-related matrix-associated actin-dependent regulator of chromatin subfamily A member 2 (Homo sapiens, UniProt P51531). Briefly: Luminescence-based cell-based high throughput dose response assay to identify activators of the function of SWI/SNF related, matrix associated, actin dependent regulator of chromatin, subfamily a, member 2 (SMARCA2, BRM). The class given is functional.
Chain of SWI/SNF-related matrix-associated actin-dependent regulator of chromatin subfamily A member 2 (P51531 whole entry): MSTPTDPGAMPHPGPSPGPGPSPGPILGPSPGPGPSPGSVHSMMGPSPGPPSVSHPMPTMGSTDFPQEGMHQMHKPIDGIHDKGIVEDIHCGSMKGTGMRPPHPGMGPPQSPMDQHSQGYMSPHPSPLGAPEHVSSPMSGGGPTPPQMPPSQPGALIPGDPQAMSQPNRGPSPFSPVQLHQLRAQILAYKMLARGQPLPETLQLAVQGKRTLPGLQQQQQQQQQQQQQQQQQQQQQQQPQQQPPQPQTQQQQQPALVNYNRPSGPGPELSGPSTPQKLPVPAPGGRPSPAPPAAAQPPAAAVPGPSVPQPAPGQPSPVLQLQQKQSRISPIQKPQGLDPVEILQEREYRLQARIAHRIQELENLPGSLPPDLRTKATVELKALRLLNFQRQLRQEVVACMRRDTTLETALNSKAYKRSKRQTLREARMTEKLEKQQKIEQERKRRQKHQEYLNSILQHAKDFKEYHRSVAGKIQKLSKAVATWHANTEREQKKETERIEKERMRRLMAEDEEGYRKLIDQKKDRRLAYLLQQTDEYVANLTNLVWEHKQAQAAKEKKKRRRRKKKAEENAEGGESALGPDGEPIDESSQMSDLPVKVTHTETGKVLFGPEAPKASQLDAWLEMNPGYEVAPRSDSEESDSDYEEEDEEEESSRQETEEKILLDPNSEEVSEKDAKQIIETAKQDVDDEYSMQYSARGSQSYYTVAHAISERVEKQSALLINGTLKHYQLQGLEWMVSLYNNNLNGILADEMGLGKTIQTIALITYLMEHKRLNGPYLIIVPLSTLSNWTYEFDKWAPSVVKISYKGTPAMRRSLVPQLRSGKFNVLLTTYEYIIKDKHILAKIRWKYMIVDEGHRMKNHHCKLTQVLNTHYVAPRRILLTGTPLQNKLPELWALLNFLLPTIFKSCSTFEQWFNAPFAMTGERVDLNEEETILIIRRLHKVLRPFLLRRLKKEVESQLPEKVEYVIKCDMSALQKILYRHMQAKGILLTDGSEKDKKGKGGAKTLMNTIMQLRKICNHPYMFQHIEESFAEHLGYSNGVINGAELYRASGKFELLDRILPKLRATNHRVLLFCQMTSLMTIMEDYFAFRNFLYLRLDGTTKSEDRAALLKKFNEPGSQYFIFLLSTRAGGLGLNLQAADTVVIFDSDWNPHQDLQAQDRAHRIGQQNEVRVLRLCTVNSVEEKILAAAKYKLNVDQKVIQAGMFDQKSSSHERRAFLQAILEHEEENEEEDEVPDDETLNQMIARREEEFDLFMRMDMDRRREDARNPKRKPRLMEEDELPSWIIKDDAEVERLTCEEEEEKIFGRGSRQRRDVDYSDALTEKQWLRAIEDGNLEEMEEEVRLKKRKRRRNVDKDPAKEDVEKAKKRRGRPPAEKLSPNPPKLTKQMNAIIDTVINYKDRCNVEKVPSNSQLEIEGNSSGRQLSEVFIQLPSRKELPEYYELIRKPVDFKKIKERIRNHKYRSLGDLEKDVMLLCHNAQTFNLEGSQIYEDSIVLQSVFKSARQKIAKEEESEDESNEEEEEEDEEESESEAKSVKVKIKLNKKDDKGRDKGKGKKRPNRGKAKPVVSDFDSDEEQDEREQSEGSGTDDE

Test [5] concerns HEK293. Briefly: cells. The settings on record: Homo sapiens.
Test [6] is described as follows: cells. To be noted: A549.
A short description of test [7]: Luminescence Cell-Based Dose Response HTS to Identify Inhibitors of 5'UTR Stem-Loop Driven Prion Protein mRNA Translation in H4 Neuroglioblastoma Cells. [Related pubchem assays: 1827 (Project Summary), 1813 (Primary HTS)]. It counts as functional.
Test [8] is described as follows: cells. To be noted: HEK293.
Test [9] in a line: inhibitors of firefly luciferase expression or activity, dose response, H4 neuroglioma cells, luminescence (AID 1990). The class given is functional, cell-based.
Test [10] can be described thus: cells.
Test [11] has as its target DNA repair protein RAD52 homolog (Homo sapiens, UniProt P43351). It counts as functional, biochemical.
A short description of test [12]: Counterscreen for activators of the function of SWI/SNF related, matrix associated, actin dependent regulator of chromatin, subfamily a, member 2 (SMARCA2, BRM): Luminescence-based cell-based high throughput dose response assay to identify non-selective compounds using the VP16 reporter assay. It counts as functional.
Test [13] is described as follows: HepG2 cell cytotoxicity, dose response, cytotoxicity control, ATP luminescence, cherry-pick, set 6 (AID 1053125). It counts as functional, cell-based.
Test [14] deals with HEK293. Briefly: cells. The settings on record: Homo sapiens. The source holds these as a separate data set.
For test [15], the target named is NAD-dependent protein deacylase sirtuin-5, mitochondrial (Homo sapiens, UniProt Q9NXA8). Briefly: SIRT5 deacylase inhibitors, dose response, biochemical, fluorescence imaging, cherry-pick, set 6 (AID 720597).
Chain of NAD-dependent protein deacylase sirtuin-5, mitochondrial (Q9NXA8 whole entry): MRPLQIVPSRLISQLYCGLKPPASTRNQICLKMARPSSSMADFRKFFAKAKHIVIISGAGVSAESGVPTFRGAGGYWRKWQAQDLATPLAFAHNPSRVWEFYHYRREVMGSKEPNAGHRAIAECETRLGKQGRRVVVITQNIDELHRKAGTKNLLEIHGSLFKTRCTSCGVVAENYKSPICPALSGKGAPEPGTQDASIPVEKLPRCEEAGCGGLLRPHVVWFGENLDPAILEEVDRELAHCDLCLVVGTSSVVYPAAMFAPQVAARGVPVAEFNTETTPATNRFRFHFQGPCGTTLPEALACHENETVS
Test [16] can be described thus: inhibitors of LMP1-driven NF-kB reporter, dose response, cell-based, EBV LMP1, luciferase, dry powder, set 2 (AID 624361). It counts as functional.
For test [17], the target named is COUP transcription factor 2 (Homo sapiens, UniProt P24468). Briefly: Luminescence-based cell-based high throughput dose response assay to identify inhibitors of COUP-TFII (NR2F2). It counts as functional.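 Note: HEK293 cells transiently cotransfected with COUP-TFII expression vector and reporter; luciferase reporter luminescence driven by COUP-TFII from the pX2-168 reporter plasmid.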
Chain of COUP transcription factor 2 (P24468 whole entry, the tested form may be a part): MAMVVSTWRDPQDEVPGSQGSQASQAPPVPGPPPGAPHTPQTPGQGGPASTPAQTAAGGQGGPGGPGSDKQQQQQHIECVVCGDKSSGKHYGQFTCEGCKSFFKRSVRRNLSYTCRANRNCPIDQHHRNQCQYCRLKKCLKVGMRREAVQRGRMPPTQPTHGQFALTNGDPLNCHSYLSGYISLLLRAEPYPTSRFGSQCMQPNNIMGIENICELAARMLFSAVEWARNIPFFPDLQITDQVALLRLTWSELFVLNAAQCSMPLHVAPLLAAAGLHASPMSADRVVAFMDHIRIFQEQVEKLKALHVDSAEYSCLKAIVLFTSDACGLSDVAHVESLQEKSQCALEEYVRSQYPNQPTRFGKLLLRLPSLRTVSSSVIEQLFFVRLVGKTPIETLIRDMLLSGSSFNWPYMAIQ
Test [18] concerns the target T2, Oxysterols receptor LXR-beta (Homo sapiens, UniProt P55055).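 Note: Cell-based luminescence dose-response assay of agonist activity at LXR, run as a confirmatory counterscreen to a daf-12 agonist screen; HEK293 cells with Gal4-LXR fusion and GAL4-driven luciferase reporter; agonist potency from rising luciferase signal of a Gal4-LXR reporter.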
T2 sequence (P55055 whole entry): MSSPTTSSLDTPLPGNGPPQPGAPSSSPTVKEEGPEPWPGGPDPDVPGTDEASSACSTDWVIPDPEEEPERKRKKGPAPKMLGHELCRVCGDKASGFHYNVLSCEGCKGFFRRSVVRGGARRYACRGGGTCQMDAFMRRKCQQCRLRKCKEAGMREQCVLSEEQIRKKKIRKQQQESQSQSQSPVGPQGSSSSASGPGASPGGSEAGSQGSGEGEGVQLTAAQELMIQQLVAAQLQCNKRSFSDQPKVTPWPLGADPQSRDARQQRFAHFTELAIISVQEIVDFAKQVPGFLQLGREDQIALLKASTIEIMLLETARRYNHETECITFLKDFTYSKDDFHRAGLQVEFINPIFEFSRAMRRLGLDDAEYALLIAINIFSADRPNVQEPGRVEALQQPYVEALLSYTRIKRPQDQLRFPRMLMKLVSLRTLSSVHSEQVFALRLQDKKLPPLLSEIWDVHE
It counts as functional, cell-based.

Test [19] is described as follows: cells. This is another data set of the same source.
The target in test [20] is T3, Protein skinhead-1 (Caenorhabditis elegans, UniProt P34707).
T3 sequence (P34707 whole entry): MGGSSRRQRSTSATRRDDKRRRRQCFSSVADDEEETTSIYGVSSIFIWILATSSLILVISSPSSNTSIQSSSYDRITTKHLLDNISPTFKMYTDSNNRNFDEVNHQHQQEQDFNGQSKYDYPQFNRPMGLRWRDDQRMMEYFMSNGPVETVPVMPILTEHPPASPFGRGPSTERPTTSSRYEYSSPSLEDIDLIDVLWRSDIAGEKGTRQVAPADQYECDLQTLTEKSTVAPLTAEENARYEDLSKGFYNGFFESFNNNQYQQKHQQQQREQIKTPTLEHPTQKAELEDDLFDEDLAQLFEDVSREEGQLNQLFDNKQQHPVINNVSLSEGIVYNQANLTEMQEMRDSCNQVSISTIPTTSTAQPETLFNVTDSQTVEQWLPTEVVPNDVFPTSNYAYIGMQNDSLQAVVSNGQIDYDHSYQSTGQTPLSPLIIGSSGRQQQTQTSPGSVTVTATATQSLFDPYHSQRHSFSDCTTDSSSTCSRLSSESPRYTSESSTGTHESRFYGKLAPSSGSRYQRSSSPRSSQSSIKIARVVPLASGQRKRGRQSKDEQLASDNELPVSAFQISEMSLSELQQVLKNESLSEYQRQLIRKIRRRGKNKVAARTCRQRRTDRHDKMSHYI
The class given is functional.

The nature of test [21]: inhibitors of non-replicating M. tuberculosis, dose response, luciferase, dry powder (AID 651619). It counts as functional. To be noted: Mycobacterium tuberculosis.
The nature of test [22]: inhibitors of non-replicating M. tuberculosis, dose response, luciferase, dry powder (AID 651620). To be noted: Mycobacterium tuberculosis. It counts as functional.
The nature of test [23]: PAX2 cell-based inhibition, dose response, selectivity assay for PAX8 inhibitor project, plate reader, dry powder samples (AID 743048).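 Note: HEK293 cells carrying a WT1 promoter luciferase reporter driven by expressed Pax2; potency is for inhibition of Pax2 driven reporter signal.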 It counts as functional.
A short description of test [24]: IOSE-T80 ovarian epithelial cell cytotoxicity, dose response, cytotoxicity control for PAX8 inhibitor project, plate reader, dry powder samples (AID 743045). It counts as functional, cell-based.
Test [25] in a line: cytotoxicity in OV-90 ovarian cancer cells, dose response, PAX8 inhibitor project, cell-based, plate reader, dry powder, SA8 (AID 743149). The class given is functional.
Test [26] can be described thus: cytotoxicity dependent on PAX8, dose response, cell-based, plate reader, dry powder (AID 743049). The class given is functional.
A short description of test [27]: NIH:OVCAR-3 ovarian cancer cell cytotoxicity, dose response, PAX8 inhibitor project, plate reader, dry powder samples (AID 743044). The class given is functional, cell-based.
Test [28] is described as follows: cytotoxicity in COV362 ovarian cancer cells, dose response, cytotoxicity control for PAX8 inhibitor project, cell-based, plate reader, dry powder, SA12 (AID 743144). The class given is functional.
Test [29] is described as follows: IGROV1 ovarian cancer cell cytotoxicity, dose response, PAX8 inhibitor project, plate reader, dry powder samples (AID 743043). It counts as functional, cell-based. To be noted: IGROV-1.
Test [30] in a line: cytotoxicity in COV434 cells, dose response, cytotoxicity control for PAX8 inhibitor project, cell-based, plate reader, dry powder, SA7 (AID 743145). The class given is functional.
Test [31] deals with Paired box protein Pax-8 (Homo sapiens, UniProt Q06710). Briefly: inhibitors of PAX8-driven TPO luciferase reporter, dose response, RMG-I cells, cherry-pick (AID 687027).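 Note: luciferase reporter driven by Pax8 target thyroperoxidase promoter measured by SteadyGlo luminescence.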 It counts as functional, cell-based.
Chain of Paired box protein Pax-8 (Q06710 whole entry): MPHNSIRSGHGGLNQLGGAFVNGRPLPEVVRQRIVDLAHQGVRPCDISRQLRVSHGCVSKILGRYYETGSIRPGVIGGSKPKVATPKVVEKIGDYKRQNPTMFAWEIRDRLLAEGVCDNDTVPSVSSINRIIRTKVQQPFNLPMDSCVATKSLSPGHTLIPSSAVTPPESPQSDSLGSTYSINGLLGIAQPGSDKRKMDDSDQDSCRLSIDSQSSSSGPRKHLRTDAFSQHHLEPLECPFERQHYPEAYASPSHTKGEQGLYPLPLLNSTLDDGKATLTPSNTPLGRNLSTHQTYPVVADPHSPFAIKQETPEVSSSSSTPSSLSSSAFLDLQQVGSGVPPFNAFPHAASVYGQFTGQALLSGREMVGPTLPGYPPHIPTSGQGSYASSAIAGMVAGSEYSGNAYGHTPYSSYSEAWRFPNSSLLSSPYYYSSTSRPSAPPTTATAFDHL
A short description of test [32]: PAX5 activity inhibitors, dose response, selectivity assay for PAX8 inhibitor project, cell-based, plate reader, dry powder samples (AID 743047).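 Note: HEK293 cells carrying a Pax5 driven CD19 promoter luciferase reporter; potency of inhibitors that lower reporter luminescence.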 The class given is functional.
The nature of test [33]: cytotoxicity in OVCAR4 cells, dose response, cytotoxicity control for PAX8 inhibitor project, cell-based, plate reader, dry powder, SA11 (AID 743150). The class given is functional. The settings on record: OVCAR-4.
Test [34] in a line: A2780 ovarian cancer cell cytotoxicity, dose response, cytotoxicity control, plate reader, dry powder samples (AID 743046). The class given is functional, cell-based.

Structures can show the parent of a compound that is named as a salt. Active and inactive are the calls of the source.

Chain of DNA repair protein RAD52 homolog (P43351 whole entry): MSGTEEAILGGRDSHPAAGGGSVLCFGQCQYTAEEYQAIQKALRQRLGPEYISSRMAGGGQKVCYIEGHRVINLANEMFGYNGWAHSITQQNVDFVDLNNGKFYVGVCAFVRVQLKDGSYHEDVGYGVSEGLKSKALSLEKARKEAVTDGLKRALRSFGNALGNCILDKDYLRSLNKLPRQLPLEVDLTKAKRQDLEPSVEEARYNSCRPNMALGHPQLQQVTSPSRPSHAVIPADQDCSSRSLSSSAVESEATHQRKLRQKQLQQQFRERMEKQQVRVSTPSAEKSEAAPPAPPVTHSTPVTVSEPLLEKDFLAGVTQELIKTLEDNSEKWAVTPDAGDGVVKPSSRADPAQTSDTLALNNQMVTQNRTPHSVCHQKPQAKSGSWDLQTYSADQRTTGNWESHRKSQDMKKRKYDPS

`COc1ccc(CNC(=O)C(c2ccc(C)cc2)N(Cc2cccs2)C(=O)c2ccc3c(c2)OCCO3)cc1` (centres undefined): the figures for the AC50 in test [1] and in test [2] were 13.8 µM (active) and 8.1 µM (active), respectively.

Regarding `Nc1c2ccccc2nc2ccccc12` [AMINACRINE HYDROCHLORIDE], the AC50 in test [3] is 2.76 µM (active); in test [6] it was 4.06 µM (active); in test [8], 2.57 µM (active); in test [10], 0.341 µM (active); in test [11], < 1.92 µM (active); in test [13], 7.15 µM (active). The EC50 in test [4] was > 3.38 µM (active); in [5], > 2.21 µM (active); in test [7], > 60 µM (not active); in test [9] it was > 120 µM (not active); in [12], > 91.1 µM (inactive); in [14], > 59.7 µM (inactive).

With `Cc1noc(C)c1S(=O)(=O)Nc1ccc2c(c1)C(=O)N([C@H](C)CO)C[C@@H](C)[C@H](CN(C)Cc1ccc(C(F)(F)F)cc1)OCCCC[C@@H](C)O2`, the AC50 in test [15] was > 30 µM (inactive). This molecule displayed an AbsAC35 in [16] of 39.54 µM.

For `CCN(CC)S(=O)(=O)c1ccc(/C=C/C(=O)Nc2ccc(Br)cc2F)cc1`, the IC50 in [17] is 5.05 µM (active).

Turning to `Fc1ccc(-c2nnc(-c3ccc4ccccc4c3)o2)cc1`, the EC50 in [18] and in [19] was > 67.5 µM (inactive) throughout. Also, the IC50 in test [20] was > 100 µM (inactive).

For the molecule `[O-][n+]1ccccc1CSc1nnc(-c2ccccc2)o1`, the IC90 in [21] and in [22] was 31 µM (active) each time.

Turning to `COc1ccc(/C=C/C(=O)c2cc(F)ccc2OC(=O)c2ccccc2C)cc1OC`, the AC50 in test [23] is > 100 µM (inactive); in [24], 4.08 µM (active); in [25] it was 4.08 µM (active); in [26] it was 5.56 µM (active); in test [27] it was 13.2 µM (active); in test [28] it was 2.52 µM (active). Besides, the AC50 in test [29] was 3.26 µM (active); in test [30] it was 1.79 µM (active); in [31] it was 1.74 µM (active); in test [32] it was 31.1 µM (active); in test [33], 1.71 µM (active); in test [34] it was 3.22 µM (active).
